Results on 14 compounds are retold here after PubChem BioAssay (NCI).

Some test systems named below: UACC-257 melanoma; SK-MEL-28 melanoma; COLO 205 colon; A549 NSCLC; HT29 colon; NCI-H460 lung; SR leukemia; MALME-3M melanoma; OVCAR-4 ovarian; KM12 colon; OVCAR-3 ovarian.
Holding throughout (assay): DTP human tumour cell line panel, 48 h

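These data come from cells grown in 96-well plates and exposed to compound for 48 hours at five concentrations. Definition used: TGI = concentration required for complete inhibition of growth.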

Take `CC(=O)OCC1(CNc2nc(N)ncc2C#N)CC(CCc2ccccc2)C1` (configuration not stated): the TGI in the experiment with UACC-257 melanoma, in the experiment on SK-MEL-28 melanoma, with COLO 205 colon, in the experiment with A549 NSCLC, in the experiment on HT29 colon and in the experiment on NCI-H460 lung was more than 100 µM in each case. Besides, the TGI in the experiment on SR leukemia, in the experiment on MALME-3M melanoma, in the experiment on OVCAR-4 ovarian and in the experiment on KM12 colon was more than 100 µM each time.
On to `CCCOC1OC(CS(=O)(=O)O)C(OC(C)=O)C(OC(C)=O)C1OC(C)=O` (configuration not stated), for which the TGI in the experiment on UACC-257 melanoma, with SK-MEL-28 melanoma, in the experiment with COLO 205 colon, with HT29 colon, with NCI-H460 lung and with SR leukemia was more than 100 µM throughout. Further, the TGI in the experiment with MALME-3M melanoma, in the experiment with OVCAR-4 ovarian, in the experiment on OVCAR-3 ovarian and with KM12 colon was more than 100 µM throughout.
As to `NNc1nnc(-c2ccccc2)nc1Cc1ccccc1`, the TGI with SK-MEL-28 melanoma, in the experiment on COLO 205 colon, with A549 NSCLC, in the experiment on HT29 colon, in the experiment on NCI-H460 lung and in the experiment with SR leukemia was more than 100 µM throughout. Besides, the TGI was 26.3 µM in the experiment with MALME-3M melanoma, more than 100 µM with OVCAR-4 ovarian, more than 100 µM in the experiment with OVCAR-3 ovarian and more than 100 µM in the experiment on KM12 colon.
For the compound `C/C(=N\NC(=O)c1ccncc1)c1cccc(C(F)(F)F)c1`, the TGI in the experiment with UACC-257 melanoma, in the experiment with SK-MEL-28 melanoma, in the experiment on COLO 205 colon, in the experiment with A549 NSCLC, in the experiment with HT29 colon and with NCI-H460 lung was more than 10 µM in each case. In addition, the total growth inhibition concentration (TGI) with SR leukemia, in the experiment on MALME-3M melanoma, with OVCAR-4 ovarian and with KM12 colon was more than 10 µM throughout.
For the compound `COc1c(-c2ccc(F)cc2)oc2cc(O)cc(O)c2c1=O`, the TGI is more than 100 µM in the experiment on SK-MEL-28 melanoma; 36.7 µM with COLO 205 colon; more than 100 µM in the experiment on A549 NSCLC; 44.6 µM in the experiment on HT29 colon; 59.9 µM with NCI-H460 lung; more than 100 µM in the experiment with SR leukemia. Besides, the TGI is 61.1 µM in the experiment with MALME-3M melanoma, more than 100 µM in the experiment with OVCAR-3 ovarian and 98.4 µM with KM12 colon.
On to `COC(=O)c1c(C)cccc1C1CN=NC12Cc1cccc(C)c1C2=O` (configuration not stated), for which the TGI is 57.7 µM in the experiment with UACC-257 melanoma; more than 100 µM in the experiment with SK-MEL-28 melanoma; more than 100 µM in the experiment on COLO 205 colon; 66.8 µM in the experiment on A549 NSCLC; more than 100 µM in the experiment on HT29 colon; 45.1 µM in the experiment with NCI-H460 lung. Besides, the TGI was more than 100 µM with SR leukemia, 87.2 µM in the experiment on MALME-3M melanoma, more than 100 µM in the experiment with OVCAR-4 ovarian and more than 100 µM in the experiment on KM12 colon.
In the case of `COc1ccc(/C=N/N=C(\N)NO)c(OC)c1OC`, the TGI in the experiment on SK-MEL-28 melanoma is more than 100 µM; in the experiment on COLO 205 colon, more than 100 µM; with A549 NSCLC, more than 100 µM; in the experiment on HT29 colon, more than 100 µM; in the experiment with NCI-H460 lung it was more than 100 µM; with SR leukemia, 74.5 µM. Besides, the TGI was more than 100 µM in the experiment on MALME-3M melanoma, more than 100 µM in the experiment on OVCAR-4 ovarian, 67.3 µM in the experiment on OVCAR-3 ovarian and 52.9 µM in the experiment on KM12 colon.
For the compound `COC(=O)NC(Nc1ccc(C)cc1)(C(F)(F)F)C(F)(F)F`, the TGI in the experiment on UACC-257 melanoma, in the experiment with SK-MEL-28 melanoma, in the experiment on COLO 205 colon, in the experiment on A549 NSCLC, in the experiment on HT29 colon and in the experiment on NCI-H460 lung was more than 100 µM throughout. The TGI in the experiment with SR leukemia, in the experiment on MALME-3M melanoma, in the experiment with OVCAR-3 ovarian and with KM12 colon was more than 100 µM in each case.
Turning to `Cc1cc(C)c(C#N)c(SC(=S)NC(=O)c2ccccc2)n1`, the TGI with UACC-257 melanoma, in the experiment on SK-MEL-28 melanoma, with COLO 205 colon, with A549 NSCLC, in the experiment with HT29 colon and with NCI-H460 lung was more than 100 µM each time. Moreover, the TGI with SR leukemia, in the experiment on MALME-3M melanoma, in the experiment with OVCAR-4 ovarian and in the experiment on KM12 colon was more than 100 µM throughout.
Consider `COc1ccc(C2C3=CONC3CC3CCCCC32)cc1` (configuration not stated), for which the TGI in the experiment on UACC-257 melanoma, in the experiment on SK-MEL-28 melanoma, with A549 NSCLC, in the experiment with HT29 colon, with NCI-H460 lung and with SR leukemia was more than 100 µM in each case. Moreover, the TGI with MALME-3M melanoma, in the experiment on OVCAR-4 ovarian and in the experiment on OVCAR-3 ovarian was more than 100 µM each time.
Take `CCC(=O)Nc1ccc(N2C(=O)/C(=C/c3ccc(O)c(OC)c3)N=C2c2ccccc2)cc1`: the TGI with UACC-257 melanoma was 71.5 µM; in the experiment with SK-MEL-28 melanoma, more than 100 µM; with A549 NSCLC, more than 100 µM; with HT29 colon, more than 100 µM; in the experiment with NCI-H460 lung, more than 100 µM; in the experiment on SR leukemia, more than 100 µM. Further, the TGI in the experiment with MALME-3M melanoma, in the experiment with OVCAR-4 ovarian, with OVCAR-3 ovarian and with KM12 colon was more than 100 µM throughout.
In the case of `COc1ccc(C[C@H]2COC(=O)[C@@H]2Cc2ccccc2)cc1OC`, the TGI in the experiment on UACC-257 melanoma, in the experiment with SK-MEL-28 melanoma, in the experiment on A549 NSCLC, in the experiment on HT29 colon, with NCI-H460 lung and in the experiment on SR leukemia was more than 100 µM throughout. The TGI in the experiment on MALME-3M melanoma, in the experiment with OVCAR-3 ovarian and in the experiment on KM12 colon was more than 100 µM in each case.
In the case of `Cc1ccc(Cl)c2c(=O)cc(-c3ccccc3)[nH]c12`, the TGI in the experiment on UACC-257 melanoma, in the experiment with SK-MEL-28 melanoma, in the experiment with COLO 205 colon, in the experiment on A549 NSCLC, in the experiment with HT29 colon and in the experiment with NCI-H460 lung was more than 100 µM each time. Besides, the concentration for total growth inhibition (TGI) in the experiment with SR leukemia, with MALME-3M melanoma, in the experiment on OVCAR-4 ovarian and with KM12 colon was more than 100 µM in each case.
Take `Cc1ccc(C2(N3CCOCC3)OC(C)(C)c3cccc4cccc2c34)cc1` (configuration not stated): the TGI in the experiment with UACC-257 melanoma is 34.6 µM; in the experiment with COLO 205 colon it was 31 µM; with A549 NSCLC, 29 µM; with HT29 colon, 31.8 µM; in the experiment with NCI-H460 lung, 30.2 µM; in the experiment on SR leukemia, more than 100 µM. Moreover, the TGI worked out at 36.9 µM in the experiment on MALME-3M melanoma, 31.1 µM in the experiment on OVCAR-4 ovarian, 34.4 µM in the experiment with OVCAR-3 ovarian and 57.2 µM in the experiment with KM12 colon.
